The values that follow come from patent US20240082463A1, “COATED MEDICAL PRODUCT” (HEMOTEQ AG, priority 2020, published 2024).

A short description of series [1]: Preparation and stability of crystal suspensions of microcrystalline paclitaxel with solutions of different tri-O-acylglycerols. The conditions noted are these: for microcrystals intact in SEM images: SEM 200× and 1000×; for microcrystals of paclitaxel dissolve directly in the solution: directly after combining, room temperature.
From the text: In the first step, solutions of tri-O-acylglycerols were first prepared in a solvent mixture. Subsequently, the solutions were combined with microcrystals of paclitaxel to investigate which tri-O-acylglycerols could be used to obtain stable crystal suspensions. […] For the preparation of the solutions, an ethyl acetate/heptane solvent mixture was used here as an example.
To prepare the solutions, the respective tri-O-acylglycerol was first dissolved in a polar organic solvent and then a non-polar solvent was added.
To prepare the solutions, 770 mg of the respective tri-O-acylglycerol were dissolved in 14 g ethyl acetate (15.6 mL). Then, 57.4 g of n-heptane (84.4 mL) was added.
Subsequently, homogenization and filtration were performed. The total volume of the solvent mixture is 100 mL.
To a precisely weighed amount of dry microcrystals of the previously prepared paclitaxel, a defined amount of the solutions containing tri-O-acylglycerol and optionally antioxidant is carefully added.
To check whether crystal suspension can be prepared, to each 200 mg of paclitaxel in the form of microcrystals were carefully added 10 mL of one of the solutions 1a) to 1j) at room temperature. Six mixtures of 10 mL of solution for each solution were prepared. After combining, it was tested whether the microcrystals of paclitaxel dissolved directly in the solutions.
To evaluate the crystal size, particle size distribution (i.e., crystal size distribution), and shape of the crystals, a sample was taken with a Pasteur pipette in each case and a drop was placed on the slide of the SEM sample plate. SEM images were taken at 200× and 1000× magnification for evaluation.
To evaluate the crystal size, particle size distribution (i.e., crystal size distribution), and shape of the crystals, one sample was taken from each using a Pasteur pipette and one drop was placed on the foil of the SEM sample plate. An additional sample was taken from the sediment and one drop was placed on the slide of the SEM sample plate. SEM images were taken at 200× and 1000× magnification for evaluation. SEM images were taken at 200 and 1000× magnification for evaluation.
To prepare the solutions, 770 mg of the respective tri-O-acylglycerol were dissolved in 14 g ethyl acetate (15.6 mL). Then, 57.4 g of n-heptane (84.4 mL) was added. Subsequently, homogenization and filtration were performed. The total volume of the solvent mixture is 100 mL.
Three mixtures of 10 mL of solution for each solution were prepared. After combining, it was tested whether the microcrystals dissolved directly in these solutions.
For series [2] the following is noted: cited from earlier work.
A short description of series [3]: Uniformity of coating and recovery rate of active agent on coated balloon catheters. The text has this:
Balloon catheters 4×40 mm were coated with a 2% PTX suspension containing trioctanoylglycerol (20 wt % based on PTX) using a droplet dosing technique in a microdosing method such as the pipetting method, or droplet dragging method. […] The studies on the recovery rate of active agent on balloon catheters divided into equally sized segments confirm the uniformity of the coating and thus the success in using a crystal suspension as well as a 100% recovery rate
Balloon catheters 4×40 mm were each coated with a 2% PTX suspension containing tridodecanoylglycerol or tritetradecanoylglycerol (20 wt % based on PTX) using a drop dosing technique in a micro dosing method such as the pipetting method or drop dragging method.
For this purpose, the coated weighed balloon is fixed and inflated. The balloon is then cut with a scalpel into pieces of as equal size as possible, e.g. a 40 mm long balloon into 4 pieces, a 120 mm long balloon can be divided into 6 pieces. First, cut the balloon in half lengthwise and measure the layer thickness with a micrometer. Then the balloon is divided and the pieces are weighed and also the layer thicknesses are measured with the micrometer.
The coatings are each dissolved in a defined amount of acetone and the amount of active agent is determined via HPLC. The results are compared with each other, taking into account the balloon section areas.

Series [4] is described as follows: Crystal suspensions of microcrystalline paclitaxel with different proportions of tri-O-acylglycerol. The format is physicochemical. The following applies: tri-O-acylglycerol:paclitaxel 20:80, after 100 h. The procedure: For this purpose, further investigation was carried out using solutions of trioctanoylglycerol or tridecanoylglycerol with different proportions of tri-O-acylglycerol to find out the optimum mass ratio of tri-O-acylglycerol to microcrystalline paclitaxel. To prepare the solutions, the appropriate amount of each tri-O-acylglycerol was dissolved in 14 g ethyl acetate (15.6 mL). […] Subsequently, homogenization and filtration were performed.

Setting [5] is: after 24-48 hours and temperature elevation to 50° C.
Where [6] appears, read: 100 h and temperature elevation to 50° C.

Turning to `CCCCCCCCC(=O)OCC(COC(=O)CCCCCCCC)OC(=O)CCCCCCCC` [trinonanoylglycerol], the “stability of crystal suspension” value in series [1] (setting [5]) is on record as “remained stable”. For the same molecule, in series [2], the solubility in water entry is reported as “practically insoluble”.

In the case of `CCCCCCCCCC(=O)OCC(COC(=O)CCCCCCCCC)OC(=O)CCCCCCCCC` [tridecanoylglycerol], the “stability and flexibility of coating” value in series [3] was “particularly stable and flexible coating”. For the same molecule, the “stability of crystal suspension” value in series [1] (setting [6]) was “remained stable”. The solubility in water entry in series [2] is reported as “practically insoluble”. In series [4], the “stability of crystal suspension at ratio 20:80” value is “excellent stable”.

As to `CCCCCCCC(=O)OCC(COC(=O)CCCCCCC)OC(=O)CCCCCCC` [trioctanoylglycerol], the “stability and flexibility of coating” value in series [3] was “particularly stable and flexible coating”. Also, the “stability of crystal suspension” value in series [1] (setting [6]) was “remained stable”. The solubility in water entry in series [2] is “practically insoluble”. Besides, the “stability of crystal suspension at ratio 20:80” value in series [4] was “excellent stable”.

Take `CCCCCCCCCCC(=O)OCC(COC(=O)CCCCCCCCCC)OC(=O)CCCCCCCCCC` [triundecanoylglycerol, 1,3-bis(undecanoyloxy)propan-2-yl-undecanoate]: in series [1], the “sedimentation of the microcrystals” value was “no sedimentation” and the “microcrystals intact in SEM images” value is “remained intact”. Moreover, the “stability of crystal suspension” value in series [1] (setting [5]) was “remained stable”. Moreover, the solubility in water entry in series [2] was “practically insoluble”.

Turning to `CCCCCCCCCCCCCC(=O)OCC(COC(=O)CCCCCCCCCCCCC)OC(=O)CCCCCCCCCCCCC` [tritetradecanoylglycerol], in series [1], the “sedimentation of the microcrystals” value is “sedimentation of the crystals occurred”, the “state of paclitaxel microcrystals in the suspension after 100 h” value is “did not dissolve completely”, the “microcrystals intact in SEM images” value is listed as “did not remain intact” and the “microcrystals of paclitaxel dissolve directly in the solution” value is on record as “did not dissolve directly”.

As for `CCCCCC(=O)OCC(COC(=O)CCCCC)OC(=O)CCCCC` [trihexanoylglycerol], in series [1], the “state of paclitaxel microcrystals in the suspension after 100 h” value was “not as uniformly present” and the “microcrystals of paclitaxel dissolve directly in the solution” value is recorded as “did not dissolve directly”. Further, the “paclitaxel microcrystals on temperature increase” value in series [1] (temperature increased (50° C.)) was “dissolved rapidly”.
